pEC50: −log10 of the molar value. Like-named read-outs stand apart in the source and are kept apart here. Marks after values point to notes of the source that are not given here. Bridge positions count the residues as written; N and C are the ends. Square brackets hold non-standard residues; d marks the D form. Peptide text beside a SMILES is read from it. * marks the point of attachment. Ileψ(thiazoline)Cys = CC[C@H](C)[C@H](N)C1=N[C@H](C(=O)*)CS1; dOrn = NCCC[C@@H](N)C(=O)O
Legend:
A/WS/33 = type: cell-based, influenza A virus
PDI1 enzyme = PDI1 enzyme (Homo sapiens, UniProt P07237); assay: ProteoStat PDI assay; type: biochemical; conditions: for PDI1 activity relative to mock: mock = 100, SD in parentheses; for effect on PDI1 activity (in words): at 10 or 50 µM
[1] = test system: Human influenza A virus (A/WS/33 [H1N1]); assay: microbe, parasite or virus in culture; type: cell-based; conditions: for pEC50: read-out: EC50 A/WS/33; for inhibition of replication of A/WS/33 (in words): MDCK cells; for SI for A/WS/33 (selectivity index): CC50/EC50, MDCK cells
MDCK cells = assay: Nonspecific cytotoxicity, CytoTox 96 assay; type: cell-based, canine; conditions: 24 hr treatment, SD in parentheses
[2] = test system: Swine influenza A virus (A/swine/OH/511445/2007 [H1N1], Oh7); assay: microbe, parasite or virus in culture; type: cell-based; conditions: read-out: EC50 A/swine/OH/2007
Group A rotavirus SA11 = assay: Rotavirus replication in MA104 cells; type: cell-based
[3] = test system: influenza B virus (B/Lee/40); assay: Antiviral assay, virus titration by TCID50, MDCK cells; type: cell-based; conditions: for pEC50: Influenza B virus, MDCK, read-out: EC50 B/Lee/40; for inhibition of replication of B/Lee/40 (in words): MDCK cells
[4] = Nonspecific cytotoxicity, CytoTox 96 assay; type: cell-based, canine; conditions: dog, MDCK cells
[5] = Influenza A virus, H1N1, MDCK, in Sus scrofa

Sequence of PDI1 enzyme (P07237 18-508): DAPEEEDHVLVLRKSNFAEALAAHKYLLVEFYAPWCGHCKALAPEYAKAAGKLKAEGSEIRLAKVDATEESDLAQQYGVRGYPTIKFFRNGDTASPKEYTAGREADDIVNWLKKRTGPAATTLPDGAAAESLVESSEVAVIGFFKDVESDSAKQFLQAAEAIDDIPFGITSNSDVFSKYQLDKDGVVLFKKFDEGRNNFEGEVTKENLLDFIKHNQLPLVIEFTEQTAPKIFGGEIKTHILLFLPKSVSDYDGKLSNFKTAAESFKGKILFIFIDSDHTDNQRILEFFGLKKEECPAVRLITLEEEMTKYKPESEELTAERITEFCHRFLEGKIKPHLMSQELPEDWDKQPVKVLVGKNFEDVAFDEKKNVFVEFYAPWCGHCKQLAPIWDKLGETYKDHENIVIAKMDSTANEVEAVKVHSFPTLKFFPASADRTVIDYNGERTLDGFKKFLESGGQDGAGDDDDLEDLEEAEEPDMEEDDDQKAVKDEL

Row | Molecule | reduction of viral proteins (NP or M1), Western blot (A/WS/33) | PDI1 activity relative to mock (PDI1 enzyme; compound at 10 µM) | PDI1 activity relative to mock (PDI1 enzyme; compound at 50 µM) | pEC50 [1] | CC50 (MDCK cells) [µM] | pEC50 [2] | pEC50 [2, 5] | pEC50 (Group A rotavirus SA11; Rotavirus A, MA104, read-out: EC50 rotavirus SA11 replication) | effect on PDI1 activity (in words) (PDI1 enzyme) | pEC50 ([1]; Influenza A virus, H1N1, MDCK) | inhibition of replication of A/WS/33 (in words) [1] | pEC50 [3] | inhibition of replication of B/Lee/40 (in words) [3] | SI for A/WS/33 (selectivity index) [1] | CC50 at 24 h [4] [µM] | pEC50 (Group A rotavirus SA11; read-out: EC50 rotavirus SA11 replication, MA104 cells)
1 | PACMA31 | dose-dependent | 91 (3) % | 71 (9) ^* % | 5.21 | 12.5 | – | – | – | – | – | – | – | – | – | – | –
2 | CC(C)(C)N([O])C(C)(C)C [Di-tert-butyl nitroxide (DTBN), Di-tert-butyl nitroxide] | – | 67 (6) ^* % | 25 (9) ^* % | 3.68 | > 1000 | – | – | – | – | – | – | – | – | – | – | –
3 | COC(=O)C1(C)c2[nH]c3ccccc3c2CCN1C(=O)CCl (centres unmarked) [16F16] | – | 89 (6) % | 59 (6) ^* % | 5.29 | 15 | 5.24 | – | – | – | – | – | – | – | – | – | –
4 | Epigallocatechin 3-gallate [Epigallocatechin 3-gallate (EGCG)] | – | 68 (7) ^* % | 28 (5) ^* % | 5.35 | 35.4 | – | – | – | – | – | – | – | – | – | – | –
5 | COC1=C2C[C@@H](C)C[C@H](OC)[C@H](O)[C@@H](C)/C=C(\C)[C@H](OC(N)=O)[C@@H](OC)/C=C\C=C(/C)C(=O)NC(=CC1=O)C2=O [GDA, geldanamycin] | – | 102 (5) % | 96 (2) % | – | – | – | < 5.00 | > 6.00 | little effect | < 5.00 | did not show any inhibitory activity | < 5.00 | did not show any inhibitory activity | – | – | –
6 | CC(=O)Oc1ccccc1C(=O)Nc1ncc([N+](=O)[O-])s1 [NTZ, nitazoxanide] | – | 81 (2) ^* % | 65 (4) ^* % | – | – | – | 5.89 | – | – | 6.10 | – | 5.82 | – | 16 | 12.8 | –
7 | C=CCNC1=C2C[C@@H](C)C[C@H](OC)[C@H](O)[C@@H](C)/C=C(\C)[C@H](OC(N)=O)[C@@H](OC)/C=C\C=C(/C)C(=O)NC(=CC1=O)C2=O [17-AAG, 17-N-Allylamino-17-demethoxygeldanamycin] | – | – | – | < 5.00 | – | – | – | – | – | – | did not show any inhibitory activity | – | did not show any inhibitory activity | – | – | > 6.00
8 | O=c1c(O[C@@H]2O[C@H](CO)[C@@H](O)[C@H](O)[C@H]2O)c(-c2ccc(O)c(O)c2)oc2cc(O)cc(O)c12 [Isoquercetin (IQ), isoquercetin] | – | 32 (5) ^* % | 13 (8) ^* % | – | – | – | 5.92 | – | – | 6.30 | – | 5.92 | – | 90 | 45.5 | –
9 | NC12CC3CC(CC(C3)C1)C2 [Amantidine, amantadine] | – | 102 (5) % | 103 (4) % | – | – | – | 5.85 | – | little effect | 5.92 | potently inhibited | < 4.00 | – | >83.3 | > 100 | –
10 | CCOC(=O)C1=C[C@@H](OC(CC)CC)[C@H](NC(C)=O)[C@@H](N)C1 [Oseltamivir, oseltamivir phosphate] | – | 103 (6) % | 95 (5) % | – | – | – | 6.30 | – | little effect | 6.82 | potently inhibited | 5.96 | potently inhibited | >660 | > 100 | –
11 | C/C1=C/[C@H](O)C(C)(C)CCC/C(C)=C/C[C@H]1OC(=O)c1ccc(O)cc1 [Juniferdin, juniferdin] | dose-dependent | 41 (5) ^* % | 6 (4) ^* % | – | – | – | 5.74 | – | – | 5.82 | – | 5.51 | – | 8.8 | 13.2 | –
12 | CC[C@H](C)[C@H](N)C1=N[C@H](C(=O)N[C@@H](CC(C)C)C(=O)N[C@H](CCC(=O)O)C(=O)N[C@H](C(=O)N[C@H]2CCCCNC(=O)[C@H](CC(N)=O)NC(=O)[C@@H](CC(=O)O)NC(=O)[C@H](Cc3cnc[nH]3)NC(=O)[C@@H](Cc3ccccc3)NC(=O)[C@H]([C@@H](C)CC)NC(=O)[C@@H](CCCN)NC2=O)[C@@H](C)CC)CS1 [Bacitracin A, bacitracin A] ({Ileψ(thiazoline)Cys}-L[dE]IK[dOrn]I[dF]H[dD]N; lactam 4-C) | – | 81 (3) ^* % | 53 (12) ^* % | – | – | – | < 3.30 | – | – | < 3.30 | – | < 3.30 | – | – | – | –
